According to ChEMBL document CHEMBL4002647, “BMS-933043, a Selective α7 nAChR Partial Agonist for the Treatment of Cognitive Deficits Associated with Schizophrenia” (ACS Med Chem Lett, 2017):
The source made the active and inactive calls. The calls are words filed in the database; no cut-off is given here.

How the values were obtained:
[1] = organism: Canis familiaris; assay: Hepatotoxicity in dog assessed as increase in ALT level; type: toxicity, Canis lupus familiaris; conditions: in vivo
[2] = organism: Canis familiaris; assay: Hepatotoxicity in dog assessed as increase in AST level; type: toxicity, Canis lupus familiaris; conditions: in vivo
[3] = biological target: T1, Neuronal acetylcholine receptor subunit alpha-7 (Homo sapiens, UniProt P36544); assay: Displacement of [125I]alpha-bungarotoxin from human alpha7 nAChR expressed in HEK293 cell membranes incubated for 2 hrs and measured by gamma counting method
T1 sequence (P36544 whole entry): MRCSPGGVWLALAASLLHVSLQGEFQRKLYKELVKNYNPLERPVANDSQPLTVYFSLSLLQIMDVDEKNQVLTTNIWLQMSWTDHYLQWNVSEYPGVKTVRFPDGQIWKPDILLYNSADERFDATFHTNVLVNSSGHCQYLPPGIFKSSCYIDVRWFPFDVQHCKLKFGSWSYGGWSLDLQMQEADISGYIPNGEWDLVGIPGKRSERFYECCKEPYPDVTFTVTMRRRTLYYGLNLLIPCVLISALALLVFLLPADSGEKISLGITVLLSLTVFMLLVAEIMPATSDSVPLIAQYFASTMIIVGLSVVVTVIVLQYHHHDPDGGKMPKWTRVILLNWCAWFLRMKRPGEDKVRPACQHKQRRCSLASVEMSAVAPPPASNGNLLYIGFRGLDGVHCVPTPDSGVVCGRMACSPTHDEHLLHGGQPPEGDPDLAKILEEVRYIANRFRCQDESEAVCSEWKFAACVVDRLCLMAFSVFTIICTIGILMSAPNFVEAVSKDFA

[4] = biological target: T1, Neuronal acetylcholine receptor subunit alpha-7; assay: Agonist activity at human alpha7 nAChR expressed in HEK293 cells co-expressing human RIC3 assessed as induction of peak current amplitutde at 10 uM at holding potential of -90 mV by whole-cell voltage clamp electrophysiology method relative to acetylcholine; type: cell-based
[5] = biological target: T1, Neuronal acetylcholine receptor subunit alpha-7; assay: Agonist activity at human alpha7 nAChR expressed in HEK293 cells co-expressing human RIC3 assessed as area under current curve at 10 uM at holding potential of -90 mV by whole-cell voltage clamp electrophysiology method relative to acetylcholine; type: cell-based
[6] = biological target: T1, Neuronal acetylcholine receptor subunit alpha-7; assay: Agonist activity at human alpha7 nAChR expressed in HEK293 cells co-expressing human RIC3 assessed as area under current curve at holding potential of -90 mV by whole-cell voltage clamp electrophysiology method; type: cell-based
[7] = biological target: Nicotinic acetylcholine receptor alpha-1/beta-1/delta/epsilon (Rattus norvegicus) (UniProt P25109+P25108+P25110+P09660); assay: Antagonist activity at rat alpha1beta1delta1epsilon nAChR expressed in HEK293 cells assessed as inhibition of acetylcholine-induced increase in Ca2+ flux by Fluo-4 AM dye based FLIPR assay; type: cell-based
[8] = Metabolic stability in human liver microsomes assessed as compound remaining at 3 uM after 10 mins by LC-MS/MS analysis; type: ADME, microsome; conditions: read-out: Stability
[9] = Metabolic stability in rat liver microsomes assessed as compound remaining at 3 uM after 10 mins by LC-MS/MS analysis; type: ADME, microsome; conditions: read-out: Stability
[10] = Metabolic stability in dog liver microsomes assessed as compound remaining at 3 uM after 10 mins by LC-MS/MS analysis; type: ADME, Canis lupus familiaris, microsome; conditions: read-out: Stability
[11] = Metabolic stability in monkey liver microsomes assessed as compound remaining at 3 uM after 10 mins by LC-MS/MS analysis; type: ADME, Macaca mulatta, microsome; conditions: rhesus monkey, read-out: Stability
[12] = biological target: T2, CYP3A4 (Homo sapiens, UniProt P08684); assay: Inhibition of recombinant human CYP3A4 using fluorogenic substrate BFC preincubated for 30 mins and measured after 20 to 60 mins in presence of NADPH regenerating system by fluorescence assay; type: ADME; conditions: human, recombinant CYP3A4, probe BFC
T2 sequence (P08684 whole entry): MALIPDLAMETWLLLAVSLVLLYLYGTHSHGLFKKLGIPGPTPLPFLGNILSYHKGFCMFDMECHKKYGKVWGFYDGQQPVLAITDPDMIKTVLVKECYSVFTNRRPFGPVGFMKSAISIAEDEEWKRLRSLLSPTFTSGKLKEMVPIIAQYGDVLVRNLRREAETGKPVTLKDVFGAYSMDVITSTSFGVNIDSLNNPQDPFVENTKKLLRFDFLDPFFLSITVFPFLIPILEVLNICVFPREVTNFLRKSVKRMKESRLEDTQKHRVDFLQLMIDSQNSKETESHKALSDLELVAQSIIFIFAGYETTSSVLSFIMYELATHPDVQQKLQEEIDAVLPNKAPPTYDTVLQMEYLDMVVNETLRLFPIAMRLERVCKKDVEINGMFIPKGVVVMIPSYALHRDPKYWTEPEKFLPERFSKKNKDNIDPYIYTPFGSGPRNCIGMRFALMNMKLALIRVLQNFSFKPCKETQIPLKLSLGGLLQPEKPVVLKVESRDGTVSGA

[13] = biological target: T2, CYP3A4; assay: Inhibition of recombinant human CYP3A4 using fluorogenic substrate BZR preincubated for 30 mins and measured after 20 to 60 mins in presence of NADPH regenerating system by fluorescence assay; type: ADME; conditions: human, recombinant CYP3A4, probe BZR
[14] = biological target: CYP1A2 (Homo sapiens, UniProt P05177); assay: Inhibition of recombinant human CYP1A2 using fluorogenic substrate preincubated for 30 mins and measured after 20 to 60 mins in presence of NADPH regenerating system by fluorescence assay; type: ADME; conditions: recombinant CYP1A2, probe fluorogenic substrate (not named)
Sequence of CYP1A2 (P05177 whole entry): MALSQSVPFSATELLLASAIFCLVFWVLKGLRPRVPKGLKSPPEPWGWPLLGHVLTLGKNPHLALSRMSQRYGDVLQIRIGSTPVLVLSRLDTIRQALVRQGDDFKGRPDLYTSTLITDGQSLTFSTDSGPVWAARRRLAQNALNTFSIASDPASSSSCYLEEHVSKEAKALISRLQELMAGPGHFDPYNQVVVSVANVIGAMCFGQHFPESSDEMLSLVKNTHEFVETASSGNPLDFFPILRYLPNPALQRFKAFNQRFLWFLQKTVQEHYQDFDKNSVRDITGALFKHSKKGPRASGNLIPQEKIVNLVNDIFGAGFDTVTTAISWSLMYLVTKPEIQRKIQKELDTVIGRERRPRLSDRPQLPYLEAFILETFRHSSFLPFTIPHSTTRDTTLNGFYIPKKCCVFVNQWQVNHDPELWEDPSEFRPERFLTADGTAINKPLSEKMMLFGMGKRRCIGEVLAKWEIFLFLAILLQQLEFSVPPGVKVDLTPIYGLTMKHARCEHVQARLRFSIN

[15] = biological target: CYP2B6 (Homo sapiens, UniProt P20813); assay: Inhibition of recombinant human CYP2B6 using fluorogenic substrate preincubated for 30 mins and measured after 20 to 60 mins in presence of NADPH regenerating system by fluorescence assay; type: ADME; conditions: human, recombinant CYP2B6, probe fluorogenic substrate (not named)
Sequence of CYP2B6 (P20813 whole entry): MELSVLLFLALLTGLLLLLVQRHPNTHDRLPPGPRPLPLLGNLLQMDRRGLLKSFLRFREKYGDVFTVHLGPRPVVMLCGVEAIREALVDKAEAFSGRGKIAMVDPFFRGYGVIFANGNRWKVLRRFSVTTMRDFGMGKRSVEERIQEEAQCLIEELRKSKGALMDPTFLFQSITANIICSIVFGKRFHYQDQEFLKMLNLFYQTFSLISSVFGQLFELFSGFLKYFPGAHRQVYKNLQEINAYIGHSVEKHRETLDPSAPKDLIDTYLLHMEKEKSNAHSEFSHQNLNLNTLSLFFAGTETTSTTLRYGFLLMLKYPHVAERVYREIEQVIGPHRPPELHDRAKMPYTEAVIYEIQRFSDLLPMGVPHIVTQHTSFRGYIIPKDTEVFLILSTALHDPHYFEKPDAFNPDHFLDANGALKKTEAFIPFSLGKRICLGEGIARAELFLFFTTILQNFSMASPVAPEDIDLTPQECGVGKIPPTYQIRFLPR

[16] = biological target: CYP2C8 (Homo sapiens, UniProt P10632); assay: Inhibition of recombinant human CYP2C8 using fluorogenic substrate preincubated for 30 mins and measured after 20 to 60 mins in presence of NADPH regenerating system by fluorescence assay; type: ADME; conditions: human, recombinant CYP2C8, probe fluorogenic substrate (not named)
Sequence of CYP2C8 (P10632 whole entry): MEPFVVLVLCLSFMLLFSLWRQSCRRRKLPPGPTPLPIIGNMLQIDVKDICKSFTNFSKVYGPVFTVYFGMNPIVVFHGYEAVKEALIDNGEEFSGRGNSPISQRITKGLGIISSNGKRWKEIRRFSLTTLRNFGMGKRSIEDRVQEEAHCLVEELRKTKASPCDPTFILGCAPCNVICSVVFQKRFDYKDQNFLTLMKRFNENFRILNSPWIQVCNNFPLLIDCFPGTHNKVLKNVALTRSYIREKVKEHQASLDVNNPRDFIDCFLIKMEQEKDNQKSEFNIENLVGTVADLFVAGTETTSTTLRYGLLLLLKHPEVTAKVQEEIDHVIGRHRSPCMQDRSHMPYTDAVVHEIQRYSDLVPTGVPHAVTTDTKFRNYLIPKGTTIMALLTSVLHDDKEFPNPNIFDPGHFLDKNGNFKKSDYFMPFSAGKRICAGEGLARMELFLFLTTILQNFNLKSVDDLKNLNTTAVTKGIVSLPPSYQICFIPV

[17] = biological target: CYP2C9 (Homo sapiens, UniProt P11712); assay: Inhibition of recombinant human CYP2C9 using fluorogenic substrate preincubated for 30 mins and measured after 20 to 60 mins in presence of NADPH regenerating system by fluorescence assay; type: ADME; conditions: recombinant CYP2C9, probe fluorogenic substrate (not named)
Sequence of CYP2C9 (P11712 whole entry): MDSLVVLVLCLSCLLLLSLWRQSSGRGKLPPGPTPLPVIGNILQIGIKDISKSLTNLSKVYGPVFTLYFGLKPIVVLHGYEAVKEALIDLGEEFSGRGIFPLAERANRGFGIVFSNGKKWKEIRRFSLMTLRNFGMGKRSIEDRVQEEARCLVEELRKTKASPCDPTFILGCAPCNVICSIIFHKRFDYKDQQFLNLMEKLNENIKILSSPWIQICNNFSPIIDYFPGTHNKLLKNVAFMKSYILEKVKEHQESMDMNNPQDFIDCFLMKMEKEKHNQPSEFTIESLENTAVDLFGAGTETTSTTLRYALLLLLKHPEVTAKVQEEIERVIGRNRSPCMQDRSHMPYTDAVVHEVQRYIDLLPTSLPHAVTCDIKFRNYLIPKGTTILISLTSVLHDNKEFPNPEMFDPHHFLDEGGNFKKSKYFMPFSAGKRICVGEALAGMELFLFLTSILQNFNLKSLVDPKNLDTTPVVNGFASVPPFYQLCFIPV

[18] = biological target: CYP2C19 (Homo sapiens, UniProt P33261); assay: Inhibition of recombinant human CYP2C19 using fluorogenic substrate preincubated for 30 mins and measured after 20 to 60 mins in presence of NADPH regenerating system by fluorescence assay; type: ADME; conditions: recombinant CYP2C19, probe fluorogenic substrate (not named)
Sequence of CYP2C19 (P33261 whole entry): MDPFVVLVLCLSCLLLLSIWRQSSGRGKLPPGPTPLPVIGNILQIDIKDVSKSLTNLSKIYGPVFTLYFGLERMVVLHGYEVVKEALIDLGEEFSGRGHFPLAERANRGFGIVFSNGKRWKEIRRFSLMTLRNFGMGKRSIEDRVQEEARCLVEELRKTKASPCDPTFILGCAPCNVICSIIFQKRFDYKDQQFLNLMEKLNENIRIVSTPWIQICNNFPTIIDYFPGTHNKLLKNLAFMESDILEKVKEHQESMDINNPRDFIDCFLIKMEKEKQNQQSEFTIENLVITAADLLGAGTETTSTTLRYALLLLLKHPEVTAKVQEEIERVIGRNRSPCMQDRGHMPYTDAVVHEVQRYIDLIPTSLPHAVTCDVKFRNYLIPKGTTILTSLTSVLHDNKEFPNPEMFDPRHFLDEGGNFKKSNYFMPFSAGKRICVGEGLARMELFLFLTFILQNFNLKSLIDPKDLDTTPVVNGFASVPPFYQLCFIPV

[19] = biological target: CYP2D6 (Homo sapiens, UniProt P10635); assay: Inhibition of recombinant human CYP2D6 using fluorogenic substrate preincubated for 30 mins and measured after 20 to 60 mins in presence of NADPH regenerating system by fluorescence assay; type: ADME; conditions: human, recombinant CYP2D6, probe fluorogenic substrate (not named)
Sequence of CYP2D6 (P10635 whole entry): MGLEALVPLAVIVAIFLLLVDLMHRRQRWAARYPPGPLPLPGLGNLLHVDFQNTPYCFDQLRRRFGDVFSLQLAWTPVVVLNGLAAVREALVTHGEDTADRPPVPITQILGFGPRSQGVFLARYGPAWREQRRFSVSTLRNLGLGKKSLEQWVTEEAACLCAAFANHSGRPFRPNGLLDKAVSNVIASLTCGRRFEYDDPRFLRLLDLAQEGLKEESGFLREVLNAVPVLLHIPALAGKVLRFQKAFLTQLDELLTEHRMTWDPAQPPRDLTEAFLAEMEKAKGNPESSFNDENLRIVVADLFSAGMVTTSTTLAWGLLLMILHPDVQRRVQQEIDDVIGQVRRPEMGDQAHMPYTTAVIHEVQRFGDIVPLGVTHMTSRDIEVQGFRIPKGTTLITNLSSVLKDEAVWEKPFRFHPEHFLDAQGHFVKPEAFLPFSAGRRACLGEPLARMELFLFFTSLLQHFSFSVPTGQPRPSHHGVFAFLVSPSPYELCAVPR

[20] = Fraction unbound in human plasma at 10 uM after 4 hrs by equilibrium dialysis method; type: ADME, cell-free
[21] = Fraction unbound in rat plasma at 10 uM after 4 hrs by equilibrium dialysis method; type: ADME, cell-free
[22] = Fraction unbound in mouse plasma at 10 uM after 4 hrs by equilibrium dialysis method; type: ADME, cell-free
[23] = Fraction unbound in dog plasma at 10 uM after 4 hrs by equilibrium dialysis method; type: ADME, cell-free, Canis lupus familiaris
[24] = Fraction unbound in monkey plasma at 10 uM after 4 hrs by equilibrium dialysis method; type: ADME, cell-free, Macaca mulatta; conditions: rhesus monkey
[25] = organism: Canis familiaris; assay: Hepatotoxicity in dog assessed as increase in alkaline phosphatase level; type: toxicity, Canis lupus familiaris; conditions: in vivo
[26] = organism: Canis familiaris; assay: Cardiotoxicity in dog assessed as QT prolongation; type: toxicity, Canis lupus familiaris
[27] = biological target: Neuronal acetylcholine receptor; alpha3/beta4 (Rattus norvegicus) (UniProt P04757+P12392); assay: Antagonist activity at rat alpha3beta4 nAChR expressed in HEK293 cells assessed as inhibition of acetylcholine-induced increase in Ca2+ flux by Fluo-4 AM dye based FLIPR assay; type: cell-based
[28] = biological target: Neuronal acetylcholine receptor; alpha4/beta2 (Rattus norvegicus) (UniProt P09483+P12390); assay: Antagonist activity at rat alpha4beta2 nAChR expressed in HEK293 cells assessed as inhibition of acetylcholine-induced increase in Ca2+ flux by Fluo-4 AM dye based FLIPR assay; type: cell-based
[29] = Metabolic stability in mouse liver microsomes assessed as compound remaining at 3 uM after 10 mins by LC-MS/MS analysis; type: ADME, microsome; conditions: read-out: Stability
[30] = organism: Canis familiaris; assay: […] in dog assessed as increase in AST level; type: toxicity, Canis lupus familiaris; conditions: in vivo
[31] = organism: Canis familiaris; assay: […] in dog assessed as increase in ALT level; type: toxicity, Canis lupus familiaris; conditions: in vivo
[32] = organism: Canis familiaris; assay: […] in dog assessed as increase in alkaline phosphatase level; type: toxicity, Canis lupus familiaris; conditions: in vivo

For `c1ccc2cc(NC3=NC[C@@]4(CN5CCC4CC5)O3)ncc2c1`, the Activity [1] was “Toxic”, the Activity [2] was “Toxic” and the Ki [3] was 0.0013 µM. For the same compound, the %max [4] was 26%, the %max [5] was 62% and the EC50 [6] was 0.24 µM. The inhibition [7] was “inactive”, the remaining at 10 min, 3 µM [8] was 96% and the remaining at 10 min, 3 µM [9] was 1%. The remaining at 10 min, 3 µM [10] was 74%, the remaining at 10 min, 3 µM [11] was 78% and the IC50 [12] was greater than 40 µM. For the same compound, the IC50 [13] was greater than 40 µM, the IC50 [14] was greater than 40 µM and the IC50 [15] was greater than 40 µM. For the same compound, the IC50 [16] was greater than 40 µM, the IC50 [17] was greater than 40 µM and the IC50 [18] was greater than 40 µM. It also gave an IC50 [19] greater than 40 µM, a fraction unbound at 4 h, 10 µM [20] of 0.25 and a fraction unbound at 4 h, 10 µM [21] of 0.27. It also gave a fraction unbound at 4 h, 10 µM [22] of 0.23, a fraction unbound at 4 h, 10 µM [23] of 0.44 and a fraction unbound at 4 h, 10 µM [24] of 0.35. For the same compound, the Activity [25] was “Toxic”, the Activity [26] was “Toxic” and the inhibition [27] was “inactive”. The inhibition [28] was “inactive”, the remaining at 10 min, 3 µM [29] was 89% and the Activity [30] was “Toxic”. For the same compound, the Activity [31] was “Toxic” and the Activity [32] was “Toxic”.
